Test results taken from US5955076A, “Immunoactive peptides and antibodies and their use in anti-allergy treatment” (Peptide Therapeutics Limited, priority 1989, dated 1999).
Where no end group is shown, it is not given here.

What was measured:
[1] = tested on: rat peritoneal mast cells; parameters: dose or concentration left out as unconfirmed; conditions: concentration range; in words; cited from earlier work
[2] = tested on: rats experimentally sensitised to ovalbumin; experiment: Serum histamine after systemic ovalbumin challenge of immunised, experimentally sensitised rats; type: in vivo, rat

Substance | non-cytolytic release of histamine from rat peritoneal mast cells in vitro [1] | Histamine release ([2]; A = immunised before experimental sensitisation, Control A 300) [ng/mL] | Histamine release ([2]; B = immunised after experimental sensitisation, Control B 950) [ng/mL]
KTKGSGFF [octapeptide (sequence 497-504)] | dose-dependent histamine release | – | –
KTKGSGFFVF [decapeptide (sequence 497-506)] | dose-dependent histamine release | – | –
Lys-Tyr-Asn-Gly-Ser-Asn-Gln-Arg-Phe-Phe-Ile-Phe-NH2 (KYNGSNQRFFIF-NH2) [F49, histamine releasing rat ε-chain dodecapeptide, used as immunogen] | – | 0 | 50
RKTKGSGFF [nonapeptide (sequence 496-504)] | dose-dependent histamine release | – | –
